Source: US5514706A, “Pharmaceutical compounds” (Eli Lilly and Company, priority 1994, dated 1996)

Tests used:
Type in all cases: cell-based
[1] = tested on: plasminogen activator (PA) activity in bovine retinal capillary endothelial cells; experiment: Activation of retinal capillary endothelial cells by phorbol esters (PA activity); details: for IC50: Bos taurus, Endothelial cell, dose-response curves of PA activity, read-out: IC50 from dose-response curves for phorbol ester (activation of PA activity)
Excerpt: (§1) Retinal capillary endothelial cell cultures were initiated from bovine eyes using a modification of the procedure of Buzney et al., Investigative Ophthalmology and Visual Sciences, 24: 470-483. Bovine eyes were transported on ice from a local abattoir. Extraocular muscle was trimmed from the eye, and the eye bisected posterior to the ora serrata. The vitreous and anterior portion of the eye were discarded, and the neuro-retina was gently dissected from the posterior eyecup. The retinas from 20 cattle were pooled and homogenized (5 strokes of a Teflon/glass homogenizer) in Hank's saline. The homogenate was passed through a 350μ filter to remove large debris and a 210μ filter to remove large vessels. The microvessels were trapped on a 85μ filter. The microvessels were resuspended in Hank's saline and digested with 7.5 mg/ml bacterial collagenase (Boeringher Mannhelm, Indianapolis) in Hank's saline for 1 hour at 37° C. The cells were pelleted by centrifugation (100 xg, 10 min), resuspended in 5 ml Endothelial Growth Media (EGM, Clonetics) and seeded in a gelatin-coated T-25 flask. After 24 hours the cells were trypsinized and replated in a gelatin coated T225. At 7 days and again at 14 days the cultures were labeled with acetylated lipoproteins labeled with the fluorescent probe (1,1'-dioctadecyl-3,3,3,3,-tetramethyl-indocarbocyanine perchlorate). The endothelial cells were separated from contaminating cell types using a fluorescent cell sorter as described in Voyta et al., J. Cell Biology. 99: 2034-2040.
(§2) Retinal capillary endothelial cells were seeded into 96-well plates and grown to confluence (10^5 cells/well) in EGM containing 10% fetal bovine serum (FBS). The media was changed to Dubecco's Modified Eagle's Medium with 10% fetal bovine serum 24 hours prior to the assay. The cells were treated with 50 nM 4-b phorbol 12,13-dibutyrate (4-b PDBu) to activate PKC and produce the activated endothelial phenotype characteristic of the diabetic state. The activated cells were treated with a series of dilutions of the test compounds. The phorbol esters and the test compounds were dissolved in DMSO before adding to the culture media. The cultures were incubated at 37° C. for 48 hours. Following treatment, the cells were lysed with 25 mM NH4 OH in 0.5% triton X-100.
(§3) The activation of bovine retinal capillary endothelial cells was monitored through alterations in cellular plasminogen activator (PA) activity in the cell lysates. Plasminogen activator activity was determined in a 50 μl aliquot of cell lysate using the synthetic substrate H-D-valyl-L-leucyl-lysine-p-nitroaniline dihydrochloride (Kabi).
There was also a two fold increase in cell number. […] Dose-response curves generated for 4-b PDBu and 4-b PMA indicated IC50 of 50 nH and 5 nH respectively. Elevated PA activity was observed only after prolonged (at least 8 hours) stimulation with phorbol esters. The PA activity continued to increase in a time and dose dependent manner for up to 72 hours, but constant stimulation with phorbol ester was required to maintain endothelial cell activation.

[2] = tested on: bovine retinal capillary endothelial cells; experiment: Retinal capillary endothelial cell number after phorbol ester treatment; details: confluent cells, 48 hours
Excerpt: as §1, with “The endothelial cells were separated from contaminating cell types using a fluorescent cell sorter as described in Voyta et al., J. Cell Biology. 99: 2034-2040.” left out

[3] = tested on: plasminogen activator (PA) activity in bovine retinal capillary endothelial cells; experiment: Inhibition of phorbol ester-induced activation of retinal capillary endothelial cells (plasminogen activator (PA) activity in cell lysates); details: Bos taurus, activated with 50 nM 4-b PDBu, 48 hours, cell lysate, read-out: PA ED50
Excerpt: as §1, §2, §3
Cell toxicity was determined in a parallel series of cultures using a neutral red assay. Borenfreund, E. and Puerner, J, J. Tiss. Cult. Meth. 9:7 (1984). […] Table 1 discloses the PA ED50 value in this model for representative compounds. The in vitro endothelial cell model was correlated with in situ and in vivo activities by the following models.

[4] = tested on: cultured smooth cells derived from rabbit aorta; experiment: 3H-thymidine incorporation (DNA synthesis) in vascular smooth muscle cells stimulated with platelet-derived growth factor; details: Oryctolagus cuniculus; 20 ng/ml platelet-derived growth factor, 24 hours
Description: Cells are obtained by explant method as described in Ross, J. Of Cell Bio. 50: 172 (1971). Cells are plated in 96 well microtiter plates for five days. The cultures become confluent and growth arrested. The cells are then transferred to Dulbecco's Modified Eagle's Medium (DMEM) containing 0.5-2% platelet poor plasma, 2 mM L-glutamine, 100 U/ml penicillin, 100 μg ml streptomycin, 1 μ/ml ^3 H-thymidine, 20 ng/ml platelet-derived growth factor and varying concentrations of the compounds. Stock solution of compounds is prepared in dimethyl sulphoxide and then diluted to appropriate concentration (0.01-10 μg/ml) in the above assay medium. Cells are then incubated at 37° C. for 24 hours under 5% CO2 /95% air. At the end of 24 hours, the cells are fixed in methanol. ^3 H thymidine incorporation in DNA was then determined by scintillation counting as described in Bonin et al., Exp. Cell Res. 181:475-482 (1989).
Table 1 discloses the IC50 value of representative compounds tested in the ^3 H-thymidine incorporation model. Thus the invention specifically provides a method of treating restenosis, which comprises administering to a patient in need of treatment an effective amount of a compound of the formula (I).

Structure (SMILES) | IC50 [3] [nM] | IC50 [4] [nM] | also measured
CCCC(=O)O[C@@H]1[C@@H](C)[C@@]2(O)[C@@H](C=C(CO)C[C@@]3(O)C(=O)C(C)=C[C@@H]23)[C@@H]2C(C)(C)[C@]12OC(=O)CCC [4-a PDBu] | – | – | increase in activation occurred only after treatment with phorbol esters known to activate PKC (yes/no) [1]: not
CCCC(=O)O[C@@H]1[C@@H](C)[C@@]2(O)[C@@H](C=C(CO)C[C@]3(O)C(=O)C(C)=C[C@@H]23)[C@@H]2C(C)(C)[C@]12OC(=O)CCC [4-b PDBu, 4-b phorbol 12,13-dibutyrate] | – | – | increase in activation occurred only after treatment with phorbol esters known to activate PKC (yes/no) [1]: increase in activation occurred; IC50 [1]: 50 nM; increase in PA activity associated with the cell layer ([1]; confluent cells, 48 hours): 12 fold; increase in PA released into the media ([1]; confluent cells, 48 hours): 12 fold; increase in cell number [2]: two
CCCCCCCCCCCCCC(=O)O[C@@H]1[C@@H](C)[C@@]2(O)[C@@H](C=C(CO)C[C@]3(O)C(=O)C(C)=C[C@@H]23)[C@@H]2C(C)(C)[C@]12OC(C)=O [4-b PMA] | – | – | increase in activation occurred only after treatment with phorbol esters known to activate PKC (yes/no) [1]: increase in activation occurred; IC50 [1]: 5 nM
N#CC1=C(N)Oc2ccc3ccccc3c2C1c1cccc([N+](=O)[O-])c1 (stereo not drawn) [Example 2, 2-Amino-4-(3-nitrophenyl) -4H-naphtho 2,1-b!pyran-3-carbonitrile] | 700 | 2500 | –
N#CC1=C(N)Oc2ccc3ccccc3c2C1c1ccc([N+](=O)[O-])cc1 (stereo not drawn) [Example 3, 2-Amino-4-(4-nitrophenyl)-4H-naphtho 2,1-b!pyran-3-carbonitrile] | > 20000 | 8000 | –
N#CC1=C(N)Oc2ccc3ccccc3c2C1c1ccccc1[N+](=O)[O-] (stereo not drawn) [Example 4, 2-Amino-4-(2-nitrophenyl)-4H-naphtho 2,1-b!pyran-3-carbonitrile] | > 20000 | > 30000 | –
N#CC1=C(N)Oc2ccc3ccccc3c2C1c1cccc(Br)c1 (stereo not drawn) [Example 5, 2-Amino-4-(3-bromophenyl)-4H-naphtho 2,1-b!pyran-3-carbonitrile] | 700 | 1800 | –
N#CC1=C(N)Oc2ccc3ccccc3c2C1c1cccc(Cl)c1 (stereo not drawn) [Example 6, 2-Amino-4-(3-chlorophenyl)-4H-naphtho 2,1-b!pyran-3-carbonitrile] | 1000 | 2000 | –
N#CC1=C(N)Oc2ccc3ccccc3c2C1c1cccc(F)c1 (stereo not drawn) [Example 7, 2-Amino-4-(3-fluorophenyl)-4H-naphtho 2,1-b!pyran-3-carbonitrile] | – | 2000 | –
N#CC1=C(N)Oc2ccc3ccccc3c2C1c1ccc(F)cc1 (stereo not drawn) [Example 8, 2-Amino-4-(4-fluorophenyl)-4H-naphtho 2,1-b!pyran-3-carbonitrile] | 9000 | 1500 | –
N#CC1=C(N)Oc2ccc3ccccc3c2C1c1ccccc1F (stereo not drawn) [Example 9, 2-Amino-4-(2-fluorophenyl) -4H-naphtho 2,1-b!pyran-3-carbonitrile] | > 20000 | > 3000 | –
N#CC1=C(N)Oc2ccc3ccccc3c2C1c1cccc(C(F)(F)F)c1 (stereo not drawn) [Example 10, 2-Amino-4-3-(trifluoromethyl)phenyl!-4H-naphtho 2,1-b!pyran-3-carbonitrile] | 50 | 500 | –
N#CC1=C(N)Oc2ccc3cc(C(=O)O)ccc3c2C1c1cccc([N+](=O)[O-])c1 (stereo not drawn) [Example 11, 2-Amino-3-cyano-4-(3-nitrophenyl)-4H-naphtho 2,1-b!pyran-7-carboxylic acid] | > 20000 | > 30000 | –
N#CC1=C(N)Oc2c(O)cc3ccccc3c2C1c1cccc([N+](=O)[O-])c1 (stereo not drawn) [Example 12, 2-Amino-10-hydroxy-4-(3-nitrophenyl)-4H-naphtho 2,1-b!pyran-3-carbonitrile] | 650 | 3000 | –
COc1ccc2ccc3c(c2c1)C(c1cccc([N+](=O)[O-])c1)C(C#N)=C(N)O3 (stereo not drawn) [Example 13, 2-Amino-6-methoxy-4-(3-nitrophenyl)-4H-naphtho 2,1-b!pyran-3-carbonitrile] | > 20000 | > 3000 | –
COc1cccc(C2C(C#N)=C(N)Oc3ccc4cc(C(=O)O)ccc4c32)c1 (stereo not drawn) [Example 14, 2-Amino-3-cyano-4-(3-methoxyphenyl)-4H-naphtho 2,1-b!pyran-7-carboxylic acid] | > 100000 | – | –
N#CC1=C(N)Oc2ccc3cc(C(=O)O)ccc3c2C1c1cccc(C(=O)O)c1 (stereo not drawn) [Example 15, 2-Amino-3-cyano-4-(3-carboxyphenyl)-4H-naphtho 2,1-b!pyran-7-carboxylic acid] | 5000 | – | –
N#CC1=C(N)Oc2ccc3cc(C(=O)O)ccc3c2C1c1cccc(OC(F)(F)F)c1 (stereo not drawn) [Example 16, 2-Amino-3-cyano-4-3-(trifluoromethoxy)phenyl!-4H-naphtho 2,1-b!pyran-7-carboxylic acid] | > 100000 | – | –
CCOC=NC1=C(C#N)C(c2cccc([N+](=O)[O-])c2)c2c(ccc3cc(C(=O)OCC)ccc23)O1 (stereo not drawn) [Example 17, Ethyl 3-cyano-2-ethoxymethyleneamino-4-(3-nitrophenyl)-4H-naphtho 2,1-b!pyran-7-carboxylate] | 8000 | 6000 | –
